In patent publication US20140005163A1 (NOVARTIS AG, priority 2010, published 2014):
pIC50: −log10 of the molar value. In brackets after ≈: the same amount, converted by molar mass.

Legend:
[1] = target: T1, PI3K gamma (Homo sapiens, UniProt P48736); test: PI3K gamma kinase assay (Kinase-Glo luminescence); assay type: biochemical
T1 construct: His tag (C); made in house; host or cells: baculovirus (pVL1393); Tn5 or TiniPro insect cells; construct from Roger Williams lab, MRC LMB
Summary of the method: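 Luminescent ATP-depletion (Kinase-Glo) assay with 150 nM PI3Kγ, 1 μM ATP and 10 μg/mL phosphatidylinositol in 10 mM Tris-HCl pH 7.5, 3 mM MgCl2, 50 mM NaCl, 0.05% CHAPS, 1 mM DTT; 120 min at room temperature. Eight-point dilutions; IC50 by four-parameter logistic fit.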

[2] = Cellular CaCo2 permeability assay from apical to basal (A-B); assay type: in vitro ADME; conditions: human, Caco-2, read-out: Pe A-B (permeability)
Excerpt: The permeability in 10^−6 cm/s of compounds of formula (I) have been confirmed for selected example using a cellular CaCo2 permeability assay from apical to basal (A-B): […]

[3] = test system: PKB Ser473 phosphorylation in Rat1-myr-HA-p110 delta cells; test: Reverse protein array assay, PKB Ser473 phosphorylation in Rat1-myr-p110 delta cells; assay type: cell-based; conditions: read-out: p-PKB IC50
Summary of the method: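 Cells: Rat1-myr-HA-p110 alpha/beta/delta, seeded ≥20 h. Lysis on ice 10 min; reverse-phase protein array, 4 lysate dilutions; fluorescence read, relative intensity.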

[4] = target: T2, PI3K beta (Homo sapiens, UniProt P42338); test: PI3K beta kinase assay (Kinase-Glo luminescence); assay type: biochemical
T2 construct: for the full-length p110-b subunit are generated and fused by overlapping PCR; p85(iSH2) fusion partner (see partner chain) (N); His tag (C); made in house; host or cells: baculovirus; Tn5 (Trichoplusia ni) or TiniPro insect cells
T2 sequence (P42338 with tags, fused parts or gaps limits assumed): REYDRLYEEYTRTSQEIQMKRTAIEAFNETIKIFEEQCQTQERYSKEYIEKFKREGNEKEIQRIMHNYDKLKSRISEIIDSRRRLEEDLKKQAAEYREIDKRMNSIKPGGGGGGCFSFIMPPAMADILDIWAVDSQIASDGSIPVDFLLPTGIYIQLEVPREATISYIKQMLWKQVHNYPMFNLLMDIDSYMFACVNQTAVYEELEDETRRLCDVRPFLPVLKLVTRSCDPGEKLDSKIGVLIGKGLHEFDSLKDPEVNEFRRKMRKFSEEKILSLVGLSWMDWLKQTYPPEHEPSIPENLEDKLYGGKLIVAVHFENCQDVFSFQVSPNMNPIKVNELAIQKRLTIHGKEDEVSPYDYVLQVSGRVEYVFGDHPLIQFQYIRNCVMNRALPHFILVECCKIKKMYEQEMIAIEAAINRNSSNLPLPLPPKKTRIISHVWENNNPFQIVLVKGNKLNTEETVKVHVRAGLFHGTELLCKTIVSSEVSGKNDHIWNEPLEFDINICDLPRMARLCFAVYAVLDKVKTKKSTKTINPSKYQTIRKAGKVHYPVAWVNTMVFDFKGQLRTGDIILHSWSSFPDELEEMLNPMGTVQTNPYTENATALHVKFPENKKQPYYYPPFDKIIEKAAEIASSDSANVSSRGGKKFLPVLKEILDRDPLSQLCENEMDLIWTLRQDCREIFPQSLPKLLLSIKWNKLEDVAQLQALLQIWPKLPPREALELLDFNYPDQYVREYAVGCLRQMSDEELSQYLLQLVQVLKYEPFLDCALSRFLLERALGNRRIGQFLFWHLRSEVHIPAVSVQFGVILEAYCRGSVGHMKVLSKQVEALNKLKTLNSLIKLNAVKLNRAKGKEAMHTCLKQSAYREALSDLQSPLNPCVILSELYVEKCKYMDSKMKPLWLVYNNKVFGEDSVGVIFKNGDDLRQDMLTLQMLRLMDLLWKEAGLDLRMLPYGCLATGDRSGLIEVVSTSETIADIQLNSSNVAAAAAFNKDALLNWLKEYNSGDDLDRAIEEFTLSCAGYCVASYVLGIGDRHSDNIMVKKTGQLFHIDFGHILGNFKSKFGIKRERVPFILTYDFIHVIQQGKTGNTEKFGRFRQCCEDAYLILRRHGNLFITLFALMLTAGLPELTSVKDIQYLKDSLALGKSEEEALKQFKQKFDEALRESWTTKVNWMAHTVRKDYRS
Summary of the method: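 Full-length p110β with a Gly-linked p85 iSH2 and a C-terminal His tag (BV949, 25 nM) was incubated with 10 μg/mL phosphatidylinositol and 1 μM ATP in 10 mM Tris pH 7.5, 3 mM MgCl2, 50 mM NaCl, 0.05% CHAPS, 1 mM DTT for 60 min at room temperature. Residual ATP was read by Kinase-Glo luminescence.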

[5] = Solubility in the organic solvents PEG400, propyleneglycol and ethanol; assay type: physicochemical; conditions: organic solvent or mixture
Excerpt: Compounds of the invention display particularly high solubilities in organic solvents. The compounds of the invention are thus particularly useful for topical administration, e.g. to a mammal such as a human, e.g. to the skin of said mammal. The compounds are thus useful for formulation into compositions suitable for topical administration. Compounds displaying high solubility thus provide an advantage for topical administration over compounds having a lower solubility.
The solubility of certain compounds was determined in the organic solvents PEG400, propyleneglycol and ethanol.

[6] = absolute ethanol, excipient Ethanol abs.
[7] = propylene glycol, excipient Propyleneglycol

T1 sequence (P48736 144-1102 limits assumed): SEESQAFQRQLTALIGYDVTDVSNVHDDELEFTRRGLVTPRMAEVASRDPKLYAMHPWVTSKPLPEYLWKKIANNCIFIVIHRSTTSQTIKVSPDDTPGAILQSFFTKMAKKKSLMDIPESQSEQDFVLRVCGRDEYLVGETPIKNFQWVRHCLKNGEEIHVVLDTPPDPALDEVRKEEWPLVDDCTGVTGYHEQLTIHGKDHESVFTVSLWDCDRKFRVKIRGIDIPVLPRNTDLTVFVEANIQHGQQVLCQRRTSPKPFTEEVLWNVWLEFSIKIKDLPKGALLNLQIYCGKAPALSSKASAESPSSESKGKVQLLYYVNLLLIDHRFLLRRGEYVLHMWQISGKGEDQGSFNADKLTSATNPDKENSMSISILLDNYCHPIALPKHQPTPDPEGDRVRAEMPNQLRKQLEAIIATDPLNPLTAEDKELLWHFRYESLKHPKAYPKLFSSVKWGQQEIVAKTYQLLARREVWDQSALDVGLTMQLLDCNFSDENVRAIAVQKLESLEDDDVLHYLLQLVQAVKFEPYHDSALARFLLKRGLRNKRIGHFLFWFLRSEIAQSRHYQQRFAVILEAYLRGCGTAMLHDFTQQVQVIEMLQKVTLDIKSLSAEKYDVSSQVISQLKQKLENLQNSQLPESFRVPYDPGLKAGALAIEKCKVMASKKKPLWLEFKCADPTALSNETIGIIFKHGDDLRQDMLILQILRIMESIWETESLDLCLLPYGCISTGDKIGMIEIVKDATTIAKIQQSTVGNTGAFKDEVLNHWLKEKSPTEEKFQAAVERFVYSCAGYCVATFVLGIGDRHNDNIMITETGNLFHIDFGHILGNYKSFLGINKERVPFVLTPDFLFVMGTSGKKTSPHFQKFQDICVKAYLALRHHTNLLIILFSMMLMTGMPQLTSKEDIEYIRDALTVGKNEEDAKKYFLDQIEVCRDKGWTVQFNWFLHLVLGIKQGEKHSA

Row | SMILES | pIC50 [1] | Papp A→B [2] | pIC50 [3] | pIC50 [4] | solubility [5, 6] | solubility ([5]; excipient PEG400) | solubility [5, 7]
1 | COc1ccc(-c2ccc3ncc4c(c3c2)n(-c2cn(C)nc2C)c(=O)n4C)cc1OC [Example 1.8, 8-(3,4-Dimethoxy-phenyl)-1-(1,3-dimethyl-1H-pyrazol-4-yl)-3-methyl-1,3-dihydro-imidazo[4,5-c]quinolin-2-one] | 6.84 | 28.6 ×10⁻⁶ cm/s | 7.85 | 7.70 |  |  | 
2 | Cc1nn(C)cc1-n1c(=O)n(C)c2cnc3ccc(-c4ccc(CO)nc4)cc3c21 [Example 16.2, 1-(1,3-Dimethyl-1H-pyrazol-4-yl)-8-(6-hydroxymethyl-pyridin-3-yl)-3-methyl-1,3-dihydro-imidazo[4,5-c]quinolin-2-one] | 6.31 | 5.6 ×10⁻⁶ cm/s | 6.82 | 6.77 |  |  | 
3 | CCOc1cc(-c2ccc3ncc4c(c3c2)n(-c2cn(CC)nc2C)c(=O)n4C)ccc1OC [Example 28.1, 8-(3-Ethoxy-4-methoxy-phenyl)-1-(1-ethyl-3-methyl-1H-pyrazol-4-yl)-3-methyl-1,3-dihydro-imidazo[4,5-c]quinolin-2-one] | 7.12 | 18.4 ×10⁻⁶ cm/s | 7.35 | 7.82 |  |  | 
4 | CNc1ccc(-c2ccc3ncc4c(c3c2)n(-c2cn(C)nc2C)c(=O)n4C)cn1 [Example 118.2, 1-(1,3-Dimethyl-1H-pyrazol-4-yl)-3-methyl-8-(6-methylamino-pyridin-3-yl)-1,3-dihydro-imidazo[4,5-c]quinolin-2-one] | 6.55 |  | 8.00 | 7.09 |  |  | 
5 | CCn1cc(-n2c(=O)n(C)c3cnc4ccc(-c5ccc(NC)nc5)cc4c32)c(C)n1 [Example 118.4, 1-(1-Ethyl-3-methyl-1H-pyrazol-4-yl)-3-methyl-8-(6-methylamino-pyridin-3-yl)-1,3-dihydro-imidazo[4,5-c]quinolin-2-one] |  | 15.9 ×10⁻⁶ cm/s | 7.68 | 6.89 |  |  | 
6 | Cc1nn(C)cc1-n1c(=O)n(C)c2cnc3ccc(-c4cncc(N(C)S(C)(=O)=O)c4)cc3c21 [Example 121, N-{5-[1-(1,3-Dimethyl-1H-pyrazol-4-yl)-3-methyl-2-oxo-2,3-dihydro-1H-imidazo[4,5-c]quinolin-8-yl]-pyridin-3-yl}-N-methyl-methanesulfonamide] | 6.74 |  | 6.47 | 7.03 |  |  | 
7 | COCc1ncc(-c2ccc3ncc4c(c3c2)n(-c2cn(C)nc2C)c(=O)n4C)cc1OC(C)C [Example 191.1, 1-(1,3-Dimethyl-1H-pyrazol-4-yl)-8-(5-isopropoxy-6-methoxymethyl-pyridin-3-yl)-3-methyl-1,3-dihydro-imidazo[4,5-c]quinolin-2-one] |  |  | 7.25 | 7.62 | > 24 mg/mL | > 23 mg/mL | > 19 mg/mL

Results, then the molecule that gave them:

Row | pIC50 [1] | Papp A→B [2] | pIC50 [3] | pIC50 [4] | solubility [5, 6] | solubility ([5]; excipient PEG400) | solubility [5, 7] | SMILES
8 | 6.45 | 31.2 ×10⁻⁶ cm/s | 6.86 | 6.47 |  |  |  | CCOc1ccc(-c2ccc3ncc4c(c3c2)n(-c2cn(CC)nc2C)c(=O)n4C)cn1 [Example 3.5, 8-(6-Ethoxy-pyridin-3-yl)-1-(1-ethyl-3-methyl-1H-pyrazol-4-yl)-3-methyl-1,3-dihydro-imidazo[4,5-c]quinolin-2-one]
9 | 6.39 | 35.1 ×10⁻⁶ cm/s | 7.23 | 6.12 | 4.11 mg/mL (≈ 9.31 mM) | > 20 mg/mL | > 20 mg/mL | Cc1nn(C(C)C)cc1-n1c(=O)n(C)c2cnc3ccc(-c4ccc(N(C)C)nc4)cc3c21 [Example 4.1, 8-(6-Dimethylamino-pyridin-3-yl)-1-(1-isopropyl-3-methyl-1H-pyrazol-4-yl)-3-methyl-1,3-dihydro-imidazo[4,5-c]quinolin-2-one]
10 |  | 29.7 ×10⁻⁶ cm/s | 7.21 | 6.31 |  |  |  | CCn1cc(-n2c(=O)n(C)c3cnc4ccc(-c5cnc(N(C)C)nc5)cc4c32)c(C)n1 [Example 6.4, 8-(2-Dimethylamino-pyrimidin-5-yl)-1-(1-ethyl-3-methyl-1H-pyrazol-4-yl)-3-methyl-1,3-dihydro-imidazo[4,5-c]quinolin-2-one]
11 | 7.02 | 30.5 ×10⁻⁶ cm/s | 7.37 | 8.15 | > 22 mg/mL | > 26 mg/mL | > 24 mg/mL | Cc1nn(C)cc1-n1c(=O)n(C)c2cnc3ccc(-c4cncc(OC(C)C)c4)cc3c21 [Example 58.1, 1-(1,3-Dimethyl-1H-pyrazol-4-yl)-8-(5-isopropoxy-pyridin-3-yl)-3-methyl-1,3-dihydro-imidazo[4,5-c]quinolin-2-one]
12 |  | 26.7 ×10⁻⁶ cm/s | 7.74 | 8.10 | > 21 mg/mL | > 19 mg/mL | > 20 mg/mL | Cc1ncc(-c2ccc3ncc4c(c3c2)n(-c2cn(C)nc2C)c(=O)n4C)cc1OC(C)C [Example 84.1, 1-(1,3-Dimethyl-1H-pyrazol-4-yl)-8-(5-isopropoxy-6-methyl-pyridin-3-yl)-3-methyl-1,3-dihydro-imidazo[4,5-c]quinolin-2-one]
13 |  | 26.1 ×10⁻⁶ cm/s | 8.30 | 8.30 |  |  |  | Cc1ncc(-c2ccc3ncc4c(c3c2)n(-c2cn(C)nc2C)c(=O)n4C)cc1OC(CF)CF [Example 189, 1-(1,3-Dimethyl-1H-pyrazol-4-yl)-8-[5-(2-fluoro-1-fluoromethyl-ethoxy)-6-methyl-pyridin-3-yl]-3-methyl-1,3-dihydro-imidazo[4,5-c]quinolin-2-one]
14 | 6.90 | 22.1 ×10⁻⁶ cm/s | 7.54 | 7.48 |  |  |  | COc1ccc(-c2ccc3ncc4[nH]c(=O)n(-c5cn(C)nc5C)c4c3n2)cc1OC [Example 249, 8-(3,4-dimethoxy-phenyl)-1-(1,3-dimethyl-1H-pyrazol-4-yl)-1,3-dihydro-1,3,5,9-tetraaza-cyclopenta[a]naphthalen-2-one]
15 | 6.73 |  | 6.93 | 7.17 |  |  |  | COc1ccc(-c2ccc3ncc4c(c3n2)n(-c2cn(C)nc2C)c(=O)n4C)cc1OC [Example 250, 8-(3,4-Dimethoxy-phenyl)-1-(1,3-dimethyl-1H-pyrazol-4-yl)-3-methyl-1,3-dihydro-1,3,5,9-tetraaza-cyclopenta[a]naphthalen-2-one]
